One data set has as its target xanthine oxidase (Homo sapiens, UniProt P47989). As to the kind of experiment: In vitro inhibition of xanthine oxidase. In kind it is biochemical.
Data set [1] concerns the target T1, human group IIA (hG-IIA) sPLA2 (Homo sapiens, UniProt P14555).
T1 sequence (P14555 21-144): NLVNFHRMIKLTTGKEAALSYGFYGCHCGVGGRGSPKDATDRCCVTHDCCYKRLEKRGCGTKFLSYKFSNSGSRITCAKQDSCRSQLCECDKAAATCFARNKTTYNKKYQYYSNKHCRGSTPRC
As to the kind of experiment: In vitro antiphospholipase activity. In kind it is biochemical.

For data set [2], the target named is T2, human group X (hG-X) sPLA2 (Homo sapiens, UniProt O15496).
T2 sequence (O15496 43-165): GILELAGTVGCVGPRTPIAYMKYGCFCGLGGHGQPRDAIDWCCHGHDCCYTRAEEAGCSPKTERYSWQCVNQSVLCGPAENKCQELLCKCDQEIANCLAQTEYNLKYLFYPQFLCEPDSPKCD
The data set can be described thus: In vitro antiphospholipase activity. In kind it is biochemical.

Data set [3] deals with T3, human group V (hG-V) sPLA2 (Homo sapiens, UniProt P39877).
T3 sequence (P39877 21-138): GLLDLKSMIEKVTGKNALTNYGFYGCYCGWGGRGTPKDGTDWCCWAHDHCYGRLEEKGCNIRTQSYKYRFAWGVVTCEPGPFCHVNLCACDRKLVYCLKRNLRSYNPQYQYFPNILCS
The data set can be described thus: In vitro antiphospholipase activity. In kind it is biochemical.

The target of a further data set is collagenase. The data set can be described thus: In vitro antiprotease activity. In kind it is biochemical. To be noted: 15 min preincubation. The protocol:
(§1) The inhibitory effects of 21 3H-quinazolin-4-one derivatives on several available therapeutically important proteases such as cathepsin-B, collagenase, elastase, thrombin, and trypsin were investigated. […] The protease inhibitory activity was expressed as inhibition percentage, which was determined by comparison with a control experiment. The results were expressed as IC50 values that were determined from the standard curve. A protease inhibitor cocktail (Sigma) was used as the positive control.

In the next data set the target is cathepsin-B (Homo sapiens, UniProt P07858). As to the kind of experiment: In vitro antiprotease activity. Type of data set: biochemical. As for the experimental part:
as §1

Another data set has as its target thrombin (Homo sapiens, UniProt P00734). As to the kind of experiment: In vitro antiprotease activity. Type of data set: biochemical. The protocol: as §1
In a further data set the target is T4, trypsin (Bos taurus, UniProt P00760).
T4 construct: gene PRSS1
T4 sequence (P00760 24-246): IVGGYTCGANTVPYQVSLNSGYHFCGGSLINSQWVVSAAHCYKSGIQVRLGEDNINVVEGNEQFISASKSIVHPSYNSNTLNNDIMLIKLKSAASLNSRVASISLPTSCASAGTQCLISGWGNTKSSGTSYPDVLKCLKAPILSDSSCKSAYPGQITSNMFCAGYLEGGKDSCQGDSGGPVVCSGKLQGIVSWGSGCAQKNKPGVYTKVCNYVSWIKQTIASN
As to the kind of experiment: In vitro antiprotease activity. Type of data set: biochemical. The protocol: as §1

For another data set, the target named is elastase. The data set can be described thus: In vitro antiprotease activity. In kind it is biochemical. The settings on record: 15 min preincubation. The protocol: as §1
Data set [4] addresses Naja mossambica mossambica sPLA2 (NmPLA2). The data set can be described thus: In vitro antiphospholipase activity. Type of data set: biochemical. To be noted: 20 min preincubation, lecithin substrate, pH 7.6.
Data set [5] has as its target Apis mellifera bee venom (AmPLA2) (Apis mellifera, UniProt P00630). As to the kind of experiment: biochemical.
A further data set has as its target T5, α-glucosidase (Saccharomyces cerevisiae, UniProt P53341).
T5 construct: purchased Sigma
As to the kind of experiment: In vitro inhibition of α-glucosidase activity. Type of data set: biochemical.

The test system of data set [6] is SW620 cells. As to the kind of experiment: MTT cell viability assay. To be noted: for inhibition of cell viability (in words): SW620, 30 μg/ml, MTT. Type of data set: cell-based, Human. As for the experimental part:
(§2) Human CRC cell lines, HT-29 and SW620 cells were grown in RPMI (Invitrogen) containing 10% heat-inactivated foetal bovine serum, 100 µg/ml streptomycin, 100 units/ml penicillin and 2 mmol/l L-glutamine.
(§3) Cell viability was determined using the 3-(4, 5-dimethylthiazolyl-2)–2, 5-diphenyltetrazolium bromide) MTT assay according to Mosmann[40]. 5-Fluorouracil (5-FU) was used as positive control. Briefly, after culturing cells in 96 well plates for 24 h, they were treated with different compounds (30 μg/ml) for 24 h. Freshly prepared MTT (5 mM) solutions were added to the cells and were further incubated for 2 h at 37 °C in 5% CO2. One hundred microliters of dimethyl sulphoxide (DMSO) was added in each well to dissolve the formazan crystal, formed in the reaction during incubation by careful pipetting. The absorbance of the product was measured at 540 nm using a microplate reader. The experiments were performed in triplicate for each condition. The graph illustrates the mean and standard deviation (SD) values of three independent experiments.

The subject of data set [7] is HT-29 cells. As to the kind of experiment: MTT cell viability assay. In kind it is cell-based, Human. The settings on record: for inhibition of cell viability (in words): HT-29, 30 μg/ml, MTT. As for the experimental part:
as §2, §3
For orientation: Formazan colour is commonly taken as a measure of viable cells.

The next data set relates to BclxL. The data set can be described thus: Western blotting of anti-apoptotic protein expression. Type of data set: cell-based, Human. To be noted: SW620 cells, various concentrations, 24 h, immunoblot. The protocol:
(§4) Whole cell lysates were prepared using radioimmunoprecipitation assay (RIPA) lysis buffer as described by Al-Khayal and co-workers[41]. Total protein concentration was determined using Bradford protein reagent (Bio-Rad, Hercules, CA). Soluble proteins were loaded on precast TGX gels and were analysed using immunoblotting with anti-Bcl2, anti-BclxL (dilution 1:1000; Santa Cruz Biotechnology, Dallas, TX), and anti-β-actin (1:10,000 Sigma, St. Louis, MO). Reactivity was detected using horseradish peroxidase-conjugated secondary antibodies and chemiluminescence by Clarity Western ECL substrate (Bio-Rad). Membrane was developed using C-Digit Blot Scanner (LI-COR, Hamburg, Germany).
(§5) SW620 cells were treated with various concentrations of 15d for 24 h.

The next data set has as its system Bcl2. The data set is described as above. In kind it is cell-based, Human. The settings on record: SW620 cells, various concentrations, 24 h, immunoblot. The protocol: as §4, §5
Background: Immunoblotting shows a protein as a band on a membrane.

For data set [8], the system named is SW620 cells. The data set can be described thus: MTT cell viability assay. In kind it is cell-based. The settings on record: Homo sapiens, SW-620, read-out: IC50 (cell viability).
The test system of data set [9] is HT-29 cells. The data set can be described thus: MTT cell viability assay. The settings on record: Homo sapiens, HT-29, read-out: IC50 (cell viability). Type of data set: cell-based.
For data set [10], the system named is SW620 cells. The data set can be described thus: Cytotoxicity assay using the xCELLigence system. To be noted: SW620, 20 and 40 µg/ml, 3 d, xCELLigence RTCA. Type of data set: cell-based, Human. As for the experimental part:
(§6) The optimal seeding concentration for proliferation of HT-29 was determined. HT-29 cells (5000 cell in 150 µl medium/well) and SW620 cells (12,000 cell in 150 µl medium/well) were seeded in 16 well plates (E-plate 16-ACEA Biosciences Inc., San Diego, CA) as described in the xCELLigence Real Time Cell Analyzer (RTCA) DP instrument manual provided by the manufacturer. After 24 h, 20 and 40 µg/ml of compound 15d were added and the experiments were allowed to run for another 3 d. Baseline cell indexes were calculated for at least two measurements from three replicate experiments.

In data set [11] the test system is HT-29 cells. The data set can be described thus: Cytotoxicity assay using the xCELLigence system. To be noted: HT-29, 20 and 40 µg/ml, 3 d, xCELLigence RTCA. Type of data set: cell-based, Human. The protocol:
as §6

The mark [12] stands for this setting: 20 min preincubation, lecithin substrate, pH 7.6, read-out: mean IC50 against hG-X (converted).
[13] abbreviates: 20 min preincubation, lecithin substrate, pH 7.6, read-out: mean IC50 against hG-V (converted).
[14] abbreviates: 15 min preincubation, read-out: mean IC50 against Cathepsin-B (converted).
The mark [15] stands for this setting: 15 min preincubation, read-out: mean IC50 against Thrombin (converted).
Setting [16] is: 15 min preincubation, read-out: mean IC50 against Trypsin (converted).

Structures are written as SMILES. Converted amounts (≈) assume the structure as drawn. “Also recorded” adds a separate entry of the source. Where two headings read alike, the source gives them in different places.

Sequence of Apis mellifera bee venom (AmPLA2) (P00630 34-167 limits assumed): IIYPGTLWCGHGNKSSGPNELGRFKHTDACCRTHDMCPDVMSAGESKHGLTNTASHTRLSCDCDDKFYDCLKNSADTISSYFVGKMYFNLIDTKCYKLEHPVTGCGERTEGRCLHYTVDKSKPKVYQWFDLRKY
Sequence of xanthine oxidase (P47989 whole entry, species assumed): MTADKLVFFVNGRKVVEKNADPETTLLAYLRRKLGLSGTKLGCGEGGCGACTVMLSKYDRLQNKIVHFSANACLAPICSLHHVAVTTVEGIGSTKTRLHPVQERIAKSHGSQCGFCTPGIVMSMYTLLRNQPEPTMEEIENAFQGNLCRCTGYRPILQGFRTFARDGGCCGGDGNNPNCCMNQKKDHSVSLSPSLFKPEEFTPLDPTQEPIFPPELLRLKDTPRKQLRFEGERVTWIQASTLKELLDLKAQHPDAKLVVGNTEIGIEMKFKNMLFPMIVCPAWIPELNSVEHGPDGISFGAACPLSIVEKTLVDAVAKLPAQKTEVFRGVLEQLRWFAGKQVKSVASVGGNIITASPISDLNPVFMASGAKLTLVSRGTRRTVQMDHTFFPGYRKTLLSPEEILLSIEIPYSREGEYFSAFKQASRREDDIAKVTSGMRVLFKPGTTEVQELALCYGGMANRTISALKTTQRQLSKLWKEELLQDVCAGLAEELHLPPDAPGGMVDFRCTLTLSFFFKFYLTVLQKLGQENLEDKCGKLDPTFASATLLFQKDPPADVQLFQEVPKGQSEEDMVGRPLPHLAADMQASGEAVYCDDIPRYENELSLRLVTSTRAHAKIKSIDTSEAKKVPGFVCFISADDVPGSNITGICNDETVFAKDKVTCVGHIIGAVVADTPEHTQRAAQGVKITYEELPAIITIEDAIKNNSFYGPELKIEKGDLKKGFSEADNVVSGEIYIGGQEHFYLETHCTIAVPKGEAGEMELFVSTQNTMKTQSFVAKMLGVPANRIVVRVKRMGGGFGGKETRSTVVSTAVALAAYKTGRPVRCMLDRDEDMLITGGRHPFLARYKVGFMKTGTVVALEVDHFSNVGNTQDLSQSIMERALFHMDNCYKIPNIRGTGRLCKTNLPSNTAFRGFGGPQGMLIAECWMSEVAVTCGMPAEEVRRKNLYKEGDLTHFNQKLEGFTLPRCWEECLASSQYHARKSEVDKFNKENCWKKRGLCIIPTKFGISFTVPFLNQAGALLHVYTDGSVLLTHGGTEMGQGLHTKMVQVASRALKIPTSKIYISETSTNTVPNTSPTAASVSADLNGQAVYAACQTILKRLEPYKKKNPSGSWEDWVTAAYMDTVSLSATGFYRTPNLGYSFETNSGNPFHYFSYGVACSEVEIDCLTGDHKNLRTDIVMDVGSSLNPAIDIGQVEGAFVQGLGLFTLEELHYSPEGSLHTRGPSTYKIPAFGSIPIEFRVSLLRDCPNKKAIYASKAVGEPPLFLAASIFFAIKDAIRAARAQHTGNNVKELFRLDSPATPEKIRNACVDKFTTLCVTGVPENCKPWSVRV
T5 sequence (P53341 whole entry): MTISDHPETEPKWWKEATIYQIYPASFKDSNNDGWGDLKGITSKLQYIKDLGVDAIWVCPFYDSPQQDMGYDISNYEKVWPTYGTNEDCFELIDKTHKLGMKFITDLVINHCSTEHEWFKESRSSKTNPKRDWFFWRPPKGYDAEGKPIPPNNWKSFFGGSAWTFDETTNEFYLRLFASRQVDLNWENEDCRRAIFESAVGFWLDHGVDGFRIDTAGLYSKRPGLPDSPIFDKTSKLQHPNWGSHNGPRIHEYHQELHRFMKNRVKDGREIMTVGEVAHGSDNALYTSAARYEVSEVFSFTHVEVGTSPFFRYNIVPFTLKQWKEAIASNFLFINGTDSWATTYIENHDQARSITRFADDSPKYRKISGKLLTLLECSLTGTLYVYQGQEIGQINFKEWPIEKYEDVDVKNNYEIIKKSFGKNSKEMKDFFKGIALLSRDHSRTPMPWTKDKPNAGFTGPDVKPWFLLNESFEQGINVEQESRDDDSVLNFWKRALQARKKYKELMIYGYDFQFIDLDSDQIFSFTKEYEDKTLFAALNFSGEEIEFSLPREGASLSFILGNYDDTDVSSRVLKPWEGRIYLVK
Experimental for xanthine oxidase: The xanthine oxidase inhibitory activities of the examined chemical compounds were determined by following the formation of uric acid from xanthine according to the reported method by Bondet and co-workers[46]. […] The results were expressed as IC50 determined from the curve.
Experimental for α-glucosidase: The colorimetric assay included 2 U of α-glucosidase, 5 mM of 4-NPGP, and 10 mM potassium phosphate buffer, pH 6.9. […] The reading assay was performed using a microplate reader at 405 nm. […] The results were expressed as IC50 determined from the curve.

On to `COc1cc(-n2c(C)nc3ccccc3c2=O)cc(OC)c1OC` [Compound 5a, 2 -Methyl-3-(3,4,5-trimethoxy-phenyl)-3H-quinazolin-4-one], for which the melting point is 88 to 90 °C. Also, the IC50 on xanthine oxidase was 22.2 µM. Moreover, the IC50 in [1] is 21.4 µM. In data set [2], the midpoint of inhibition, the IC50, lay at 23.4 µM. Moreover, it took 29.4 µM to reach half-maximal inhibition in data set [3] (IC50). For the same molecule, on collagenase, the “mean IC50 against Collagenase” value stood at 12.25 ± 1.77 µg/mL. The molecule further had a half-maximal inhibitory concentration (IC50) on cathepsin-B of 25.3 µM. On thrombin, this molecule showed an IC50 of 67.4 µM. Besides, the IC50 at trypsin was 88.9 µM. Besides, the “mean IC50 against Elastase” value at elastase was 23.5 ± 0.71 µg/mL. The “mean IC50 against NmPLA2” value in data set [4] is 6.00 ± 0.71 µg/mL. The molecule further had an IC50 in data set [5] of 16.9 µM. On α-glucosidase, inhibition was half-maximal at 64.3 µM (IC50).
Molecule `Cc1ccc2nc(SCc3ccc(Cl)cc3)n(-c3ccccc3)c(=O)c2c1` [Compound 15b, 2-(4-Chloro-benzylsulfanyl)-6-methyl-3-phenyl-3H-quinazolin-4-one] had a melting point of 164 to 165 °C. Moreover, the IC50 against xanthine oxidase was 49.6 µM. In [1], this molecule gave an IC50 of 66.2 µM. Also, the IC50 in data set [2] (setting [12]) is 34.4 µM. In data set [3] (setting [13]), the IC50 was 46.8 µM. Moreover, on collagenase, the “mean IC50 against Collagenase” value turned out to be 26.50 ± 2.12 µg/mL. The IC50 on cathepsin-B (setting [14]) is 34.4 µM. In addition, the IC50 at thrombin (setting [15]) is 2.55 µM. Further, the IC50 at trypsin (setting [16]) is 1.27 µM. For the same molecule, the “mean IC50 against Elastase” value at elastase turned out to be 0.65 ± 0.02 µg/mL. Moreover, the “mean IC50 against NmPLA2” value in data set [4] came to 14.85 ± 0.50 µg/mL. The “inhibition of cell viability (in words)” value in the data set on SW620 cells [6] is reported as “potently capable of inhibiting cell viability”. In addition, the “inhibition of cell viability (in words)” value in the data set on HT-29 cells [7] is “potently capable of inhibiting cell viability”. In data set [5], this molecule showed an IC50 of 34.6 µM.
As to `Cc1ccc2nc(SCC(=O)Nc3c(C)cccc3C)n(-c3ccccc3)c(=O)c2c1` [Compound 15d, N-(2,6-Dimethyl-phenyl)-2-(6-methyl-4-oxo-3-phenyl-3,4-dihydro-quinazolin-2-ylsulfanyl) -acetamide], the melting point lay in the range of 229 to 230 °C. Moreover, the IC50 against xanthine oxidase was 165 µM. Besides, 16.6 µM corresponded to half-maximal inhibition in data set [1] (IC50). Besides, the IC50 in data set [2] (setting [12]) is 54.7 µM. In addition, in [3] (setting [13]), the IC50 is 24.4 µM. In addition, the “mean IC50 against Collagenase” value on collagenase worked out at 10.50 ± 0.71 µg/mL. Moreover, at cathepsin-B (setting [14]), the IC50 was 9.31 µM. In addition, the half-inhibitory concentration (IC50) on thrombin (setting [15]) is 39.6 µM. Further, the IC50 at trypsin (setting [16]) was 32.6 µM. Further, on elastase, the “mean IC50 against Elastase” value worked out at 15.50 ± 2.12 µg/mL. Besides, the “expression of BclxL” value in the data set with BclxL was “down regulating; also recorded: inhibited”. Further, the “expression of Bcl2” value in the data set on Bcl2 is recorded as “down regulating; also recorded: inhibited”. Also, in the data set with SW620 cells [8], the IC50 was about 20 µg/mL (≈ 46.6 µM). Also, the IC50 in the data set on HT-29 cells [9] is about 20 µg/mL (≈ 46.6 µM). Moreover, the “cell proliferation, real time (in words)” value in the data set with SW620 cells [10] is recorded as “inhibit the cell proliferation”. The “cell proliferation, real time (in words)” value in the data set on HT-29 cells [11] is on record as “inhibit the cell proliferation”. Besides, the “mean IC50 against NmPLA2” value in data set [4] was determined as 8.50 ± 2.12 µg/mL. For the same molecule, the viability at 30 µg/mL in the data set on SW620 cells [6] (Homo sapiens, SW-620, 24 h, read-out: cell viability) turned out to be 36.7%. Moreover, the “inhibition of cell viability (in words)” value in the data set with SW620 cells [6] is reported as “potently capable of inhibiting cell viability”. Further, the “inhibition of cell viability (in words)” value with HT-29 cells [7] is “potently capable of inhibiting cell viability”. In the data set with HT-29 cells [7] (Homo sapiens, HT-29, 24 h, read-out: cell viability), the viability at 30 µg/mL was 38%. Besides, half-maximal inhibition in data set [5] (IC50) was put at 14 µM.

One may read the IC50 as the concentration at which inhibition is half-maximal. Usually melting point stands for the temperature, or range, at which the solid turns liquid. What is called viability is a read-out of living cells in per cent, often relative to untreated cells.

The values are drawn from PMC6407576, “Synthesis and evaluation of anticancer, antiphospholipases, antiproteases, and antimetabolic syndrome activities of some 3H-quinazolin-4-one derivatives” (Journal of Enzyme Inhibition and Medicinal Chemistry, 2019).
